Reference: ChEMBL document CHEMBL1201862, “PubChem BioAssay data set” (2004)
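Briefly, cells in 96-well plates were exposed to five compound concentrations for 48 h, and endpoints were estimated by linear interpolation. Abbreviation: GI50, concentration required for 50% inhibition of growth.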 Active and inactive are the calls of the source. Rule as the data show it: active = GI50 up to about 1.1 µM and inactive = higher.

Assays:
Assay in all cases: NCI anticancer screen, dose series, 48 h
[1] = test system: 786-0
[2] = test system: A498
[3] = test system: A549
[4] = test system: ACHN
[5] = test system: BT-549
[6] = test system: CAKI-1
[7] = test system: CCRF-CEM
[8] = test system: COLO 205
[9] = test system: DU-145
[10] = test system: EKVX
[11] = test system: HCC 2998
[12] = test system: HCT-116
[13] = test system: HCT-15
[14] = test system: HL-60
[15] = test system: HOP-62
[16] = test system: HOP-92
[17] = test system: HT-29
[18] = test system: Hs-578T
[19] = test system: IGROV-1
[20] = test system: K562
[21] = test system: KM12
[22] = test system: LOX IMVI
[23] = test system: M14
[24] = test system: MCF7
[25] = test system: MDA-MB-231
[26] = test system: MDA-MB-435
[27] = test system: MDA-N
[28] = test system: MOLT-4
[29] = test system: Malme-3M
[30] = test system: NCI-H226
[31] = test system: NCI-H23
[32] = test system: NCI-H460
[33] = test system: NCI-H522
[34] = test system: NCI/ADR-RES
[35] = test system: OVCAR-3
[36] = test system: OVCAR-4
[37] = test system: OVCAR-5
[38] = test system: OVCAR-8
[39] = test system: PC-3
[40] = test system: RPMI-8226
[41] = test system: RXF 393
[42] = test system: SF-268
[43] = test system: SF-295
[44] = test system: SF-539
[45] = test system: SK-MEL-28
[46] = test system: SK-MEL-2
[47] = test system: SK-MEL-5
[48] = test system: SK-OV-3
[49] = test system: SN12C
[50] = test system: SNB-19
[51] = test system: SNB-75
[52] = test system: SR
[53] = test system: SW-620
[54] = test system: T47D
[55] = test system: TK-10
[56] = test system: U-251
[57] = test system: UACC-257
[58] = test system: UACC-62
[59] = test system: UO-31

O=C1CCCC1C(O)(C(F)(F)Cl)C(F)(F)Cl (stereo unspecified)
GI50 [1]: > 10 µM (inactive) | GI50 [2]: > 10 µM (inactive) | GI50 [3]: > 10 µM (inactive) | GI50 [4]: > 10 µM (inactive) | GI50 [5]: > 10 µM (inactive) | GI50 [6]: > 10 µM (inactive) | GI50 [7]: > 10 µM (inactive) | GI50 [8]: > 10 µM (inactive) | GI50 [9]: > 10 µM (inactive) | GI50 [10]: > 10 µM (inactive) | GI50 [11]: > 10 µM (inactive) | GI50 [12]: > 10 µM (inactive) | GI50 [13]: > 10 µM | GI50 [14]: > 10 µM (inactive) | GI50 [15]: > 10 µM (inactive) | GI50 [16]: > 10 µM (inactive) | GI50 [17]: > 10 µM (inactive) | GI50 [18]: > 10 µM (inactive) | GI50 [19]: > 10 µM (inactive) | GI50 [20]: > 10 µM (inactive) | GI50 [21]: > 10 µM (inactive) | GI50 [22]: > 10 µM (inactive) | GI50 [23]: > 10 µM (inactive) | GI50 [24]: > 10 µM (inactive) | GI50 [25]: > 10 µM (inactive) | GI50 [26]: > 10 µM (inactive) | GI50 [27]: > 10 µM (inactive) | GI50 [28]: > 10 µM (inactive) | GI50 [29]: > 10 µM (inactive) | GI50 [30]: > 10 µM (inactive) | GI50 [31]: > 10 µM (inactive) | GI50 [32]: > 10 µM (inactive) | GI50 [33]: > 10 µM (inactive) | GI50 [34]: > 10 µM (inactive) | GI50 [35]: > 10 µM (inactive) | GI50 [36]: > 10 µM (inactive) | GI50 [37]: > 10 µM (inactive) | GI50 [38]: > 10 µM (inactive) | GI50 [39]: > 10 µM (inactive) | GI50 [40]: > 10 µM (inactive) | GI50 [41]: > 10 µM (inactive) | GI50 [42]: > 10 µM (inactive) | GI50 [43]: > 10 µM (inactive) | GI50 [44]: > 10 µM (inactive) | GI50 [45]: > 10 µM (inactive) | GI50 [46]: > 10 µM (inactive) | GI50 [47]: > 10 µM (inactive) | GI50 [48]: > 10 µM (inactive) | GI50 [49]: > 10 µM (inactive) | GI50 [50]: > 10 µM (inactive) | GI50 [51]: > 10 µM (inactive) | GI50 [52]: > 10 µM (inactive) | GI50 [53]: > 10 µM (inactive) | GI50 [54]: > 10 µM (inactive) | GI50 [55]: > 10 µM (inactive) | GI50 [56]: > 10 µM (inactive) | GI50 [57]: > 10 µM (inactive) | GI50 [58]: > 10 µM (inactive)

C=CCC(CNC(=O)OCc1ccccc1)OC(=O)OCc1ccccc1 (stereo unspecified)
GI50 [1]: 91.2 µM (inactive) | GI50 [2]: > 100 µM (inactive) | GI50 [3]: 51.3 µM (inactive) | GI50 [4]: > 100 µM (inactive) | GI50 [5]: > 100 µM (inactive) | GI50 [6]: > 100 µM (inactive) | GI50 [7]: 47.4 µM (inactive) | GI50 [8]: 39.1 µM (inactive) | GI50 [9]: > 100 µM (inactive) | GI50 [10]: 33.4 µM (inactive) | GI50 [11]: > 100 µM (inactive) | GI50 [12]: 51.9 µM (inactive) | GI50 [13]: 74.3 µM | GI50 [14]: 34 µM (inactive) | GI50 [15]: > 100 µM (inactive) | GI50 [16]: 52.6 µM (inactive) | GI50 [17]: 36.3 µM (inactive) | GI50 [18]: > 100 µM (inactive) | GI50 [19]: > 100 µM (inactive) | GI50 [20]: 37.3 µM (inactive) | GI50 [21]: 48.1 µM (inactive) | GI50 [22]: > 100 µM (inactive) | GI50 [23]: > 100 µM (inactive) | GI50 [24]: 39.1 µM (inactive) | GI50 [25]: > 100 µM (inactive) | GI50 [26]: 57 µM (inactive) | GI50 [27]: 47.1 µM (inactive) | GI50 [28]: 25.8 µM (inactive) | GI50 [30]: > 100 µM (inactive) | GI50 [31]: 43.9 µM (inactive) | GI50 [32]: > 100 µM (inactive) | GI50 [33]: 62.1 µM (inactive) | GI50 [34]: > 100 µM (inactive) | GI50 [35]: 63.2 µM (inactive) | GI50 [36]: 69.8 µM (inactive) | GI50 [37]: > 100 µM (inactive) | GI50 [38]: 69 µM (inactive) | GI50 [39]: 48.3 µM (inactive) | GI50 [40]: 26.1 µM (inactive) | GI50 [41]: > 100 µM (inactive) | GI50 [42]: > 100 µM (inactive) | GI50 [43]: 55.5 µM (inactive) | GI50 [44]: > 100 µM (inactive) | GI50 [45]: > 100 µM (inactive) | GI50 [46]: 48.2 µM (inactive) | GI50 [47]: 22 µM (inactive) | GI50 [48]: > 100 µM (inactive) | GI50 [49]: > 100 µM (inactive) | GI50 [50]: > 100 µM (inactive) | GI50 [51]: > 100 µM (inactive) | GI50 [52]: 21.8 µM (inactive) | GI50 [53]: > 100 µM (inactive) | GI50 [54]: 47.8 µM (inactive) | GI50 [55]: > 100 µM (inactive) | GI50 [56]: > 100 µM (inactive) | GI50 [57]: 73.3 µM (inactive) | GI50 [58]: 93.5 µM (inactive) | GI50 [59]: > 100 µM (inactive)
